Here are results for 7 compounds from patent US20100273769A1, “COMPOSITION AND METHOD FOR THE TREATMENT OF PARKINSON'S DISEASE” (priority 2009, published 2010).

In one series the target is Cdk1 (Homo sapiens, UniProt P06493). The series is described as follows: Kinase specificity, Cdk1. Format: biochemical. The following applies: 100 μM ATP.
The target of the next series is ERK2 (Homo sapiens, UniProt P28482). The series is described as follows: Kinase specificity, ERK2. Format: biochemical. The following applies: 100 μM ATP.
In the next series the target is T1, wildtype human LRRK2 (Homo sapiens, UniProt Q5S007).
T1 construct: human LRRK2 protein fragment encompassing amino acids 1326 to 2527; GST; made in house
T1 sequence (Q5S007 1326-2527): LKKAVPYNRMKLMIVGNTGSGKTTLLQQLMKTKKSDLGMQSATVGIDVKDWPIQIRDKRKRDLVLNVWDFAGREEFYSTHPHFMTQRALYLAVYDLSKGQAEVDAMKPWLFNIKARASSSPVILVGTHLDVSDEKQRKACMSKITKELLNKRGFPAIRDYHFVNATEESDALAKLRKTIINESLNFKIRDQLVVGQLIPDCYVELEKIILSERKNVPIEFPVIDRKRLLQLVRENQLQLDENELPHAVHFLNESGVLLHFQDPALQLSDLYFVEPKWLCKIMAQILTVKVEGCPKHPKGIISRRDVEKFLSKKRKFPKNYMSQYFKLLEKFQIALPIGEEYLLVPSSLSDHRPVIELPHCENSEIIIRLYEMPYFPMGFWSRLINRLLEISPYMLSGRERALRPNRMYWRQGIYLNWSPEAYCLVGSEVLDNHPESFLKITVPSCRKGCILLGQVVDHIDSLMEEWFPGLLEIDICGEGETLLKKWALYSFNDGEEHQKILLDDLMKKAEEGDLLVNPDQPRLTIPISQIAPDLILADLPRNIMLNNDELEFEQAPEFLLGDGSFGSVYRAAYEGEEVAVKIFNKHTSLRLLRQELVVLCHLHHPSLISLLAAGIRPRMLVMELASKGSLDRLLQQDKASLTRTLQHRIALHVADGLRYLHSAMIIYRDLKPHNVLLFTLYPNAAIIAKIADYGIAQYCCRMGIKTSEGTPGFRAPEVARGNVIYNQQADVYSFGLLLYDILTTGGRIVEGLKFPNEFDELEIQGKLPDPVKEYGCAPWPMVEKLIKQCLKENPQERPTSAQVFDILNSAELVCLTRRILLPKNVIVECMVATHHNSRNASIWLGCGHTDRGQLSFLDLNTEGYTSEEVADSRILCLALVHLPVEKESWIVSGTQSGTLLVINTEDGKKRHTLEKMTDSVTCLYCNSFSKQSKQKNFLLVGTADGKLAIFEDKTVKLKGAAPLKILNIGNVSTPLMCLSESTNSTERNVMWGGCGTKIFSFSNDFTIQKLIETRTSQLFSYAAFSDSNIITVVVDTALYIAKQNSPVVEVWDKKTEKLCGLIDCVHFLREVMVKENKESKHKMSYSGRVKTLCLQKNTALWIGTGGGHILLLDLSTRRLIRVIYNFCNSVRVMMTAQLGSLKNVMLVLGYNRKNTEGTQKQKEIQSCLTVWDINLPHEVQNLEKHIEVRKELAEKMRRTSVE
The series is described as follows: Adapta assay, inhibition of wildtype human LRRK2 kinase fragment with LRRKtide. Format: biochemical.

The target of the next series is PKC. The series can be described thus: Kinase specificity, PKC. It counts as biochemical. The following applies: 100 μM ATP.
The target of another series is GSK3. The series can be described thus: Kinase specificity, GSK3. Format: biochemical. The settings on record: 100 μM ATP.
For a further series, the target named is LRRK2 (Homo sapiens, UniProt Q5S007). The settings on record: Covy and Giasson 2009; Anand et al. 2009; cited from earlier work.
For a further series, the target named is PKA. The series can be described thus: Kinase specificity, PKA. Format: biochemical. The settings on record: 100 μM ATP.
The subject of series [1] is R1441C LRRK2 transgenic C. elegans. The series is described as follows: Food-sensing (slowing) response in LRRK2 transgenic C. elegans. It counts as in vivo. The settings on record: 2 mM added to the assay, FIG. 5 inset. The method, then:
Dopaminergic neurons in C. elegans are involved in food sensing behavior such that in the absence of food worms move more rapidly, as assessed by determining their bending frequency on an agar plate not supplied with food. In an established assay the animals are then exposed to food, and the difference in motility is recorded in the form of bending frequency [Sawin et al., Neuron 26, 619-631 (2000)]. […] In approximate synchrony with the dopaminergic neurodegeneration this slowing response is essentially eliminated after 4 days. […] The slowing response can be reconstituted to a substantial degree by supplementation with dopamine, confirming that the phenotype is due to loss of dopaminergic input (FIG. 5).
The clear-cut functional phenotype of this model can be used to determine the efficacy of LRRK2 kinase inhibitors and the accurate determination of their potency in a biological context. […] The potency is expressed as the half-maximal restoration of the slowing response. […]
The functional consequence of dopaminergic neurodegeneration was assayed using the food-sensing response resulting in a slowing of motility after food exposure as assessed by the frequency of body bending within 20 second intervals in groups of 10 animals [Sawin et al., Neuron 26, 619-631 (2000)]. […]

The nature of series [2]: Lethal plasma concentration after single dosing. Format: in vivo. The settings on record: read-out: LC50 as plasma concentration.

Like-named read-outs stand apart in the source and are kept apart here. Some results are limits rather than exact numbers.

Sequence of LRRK2 (Q5S007 whole entry): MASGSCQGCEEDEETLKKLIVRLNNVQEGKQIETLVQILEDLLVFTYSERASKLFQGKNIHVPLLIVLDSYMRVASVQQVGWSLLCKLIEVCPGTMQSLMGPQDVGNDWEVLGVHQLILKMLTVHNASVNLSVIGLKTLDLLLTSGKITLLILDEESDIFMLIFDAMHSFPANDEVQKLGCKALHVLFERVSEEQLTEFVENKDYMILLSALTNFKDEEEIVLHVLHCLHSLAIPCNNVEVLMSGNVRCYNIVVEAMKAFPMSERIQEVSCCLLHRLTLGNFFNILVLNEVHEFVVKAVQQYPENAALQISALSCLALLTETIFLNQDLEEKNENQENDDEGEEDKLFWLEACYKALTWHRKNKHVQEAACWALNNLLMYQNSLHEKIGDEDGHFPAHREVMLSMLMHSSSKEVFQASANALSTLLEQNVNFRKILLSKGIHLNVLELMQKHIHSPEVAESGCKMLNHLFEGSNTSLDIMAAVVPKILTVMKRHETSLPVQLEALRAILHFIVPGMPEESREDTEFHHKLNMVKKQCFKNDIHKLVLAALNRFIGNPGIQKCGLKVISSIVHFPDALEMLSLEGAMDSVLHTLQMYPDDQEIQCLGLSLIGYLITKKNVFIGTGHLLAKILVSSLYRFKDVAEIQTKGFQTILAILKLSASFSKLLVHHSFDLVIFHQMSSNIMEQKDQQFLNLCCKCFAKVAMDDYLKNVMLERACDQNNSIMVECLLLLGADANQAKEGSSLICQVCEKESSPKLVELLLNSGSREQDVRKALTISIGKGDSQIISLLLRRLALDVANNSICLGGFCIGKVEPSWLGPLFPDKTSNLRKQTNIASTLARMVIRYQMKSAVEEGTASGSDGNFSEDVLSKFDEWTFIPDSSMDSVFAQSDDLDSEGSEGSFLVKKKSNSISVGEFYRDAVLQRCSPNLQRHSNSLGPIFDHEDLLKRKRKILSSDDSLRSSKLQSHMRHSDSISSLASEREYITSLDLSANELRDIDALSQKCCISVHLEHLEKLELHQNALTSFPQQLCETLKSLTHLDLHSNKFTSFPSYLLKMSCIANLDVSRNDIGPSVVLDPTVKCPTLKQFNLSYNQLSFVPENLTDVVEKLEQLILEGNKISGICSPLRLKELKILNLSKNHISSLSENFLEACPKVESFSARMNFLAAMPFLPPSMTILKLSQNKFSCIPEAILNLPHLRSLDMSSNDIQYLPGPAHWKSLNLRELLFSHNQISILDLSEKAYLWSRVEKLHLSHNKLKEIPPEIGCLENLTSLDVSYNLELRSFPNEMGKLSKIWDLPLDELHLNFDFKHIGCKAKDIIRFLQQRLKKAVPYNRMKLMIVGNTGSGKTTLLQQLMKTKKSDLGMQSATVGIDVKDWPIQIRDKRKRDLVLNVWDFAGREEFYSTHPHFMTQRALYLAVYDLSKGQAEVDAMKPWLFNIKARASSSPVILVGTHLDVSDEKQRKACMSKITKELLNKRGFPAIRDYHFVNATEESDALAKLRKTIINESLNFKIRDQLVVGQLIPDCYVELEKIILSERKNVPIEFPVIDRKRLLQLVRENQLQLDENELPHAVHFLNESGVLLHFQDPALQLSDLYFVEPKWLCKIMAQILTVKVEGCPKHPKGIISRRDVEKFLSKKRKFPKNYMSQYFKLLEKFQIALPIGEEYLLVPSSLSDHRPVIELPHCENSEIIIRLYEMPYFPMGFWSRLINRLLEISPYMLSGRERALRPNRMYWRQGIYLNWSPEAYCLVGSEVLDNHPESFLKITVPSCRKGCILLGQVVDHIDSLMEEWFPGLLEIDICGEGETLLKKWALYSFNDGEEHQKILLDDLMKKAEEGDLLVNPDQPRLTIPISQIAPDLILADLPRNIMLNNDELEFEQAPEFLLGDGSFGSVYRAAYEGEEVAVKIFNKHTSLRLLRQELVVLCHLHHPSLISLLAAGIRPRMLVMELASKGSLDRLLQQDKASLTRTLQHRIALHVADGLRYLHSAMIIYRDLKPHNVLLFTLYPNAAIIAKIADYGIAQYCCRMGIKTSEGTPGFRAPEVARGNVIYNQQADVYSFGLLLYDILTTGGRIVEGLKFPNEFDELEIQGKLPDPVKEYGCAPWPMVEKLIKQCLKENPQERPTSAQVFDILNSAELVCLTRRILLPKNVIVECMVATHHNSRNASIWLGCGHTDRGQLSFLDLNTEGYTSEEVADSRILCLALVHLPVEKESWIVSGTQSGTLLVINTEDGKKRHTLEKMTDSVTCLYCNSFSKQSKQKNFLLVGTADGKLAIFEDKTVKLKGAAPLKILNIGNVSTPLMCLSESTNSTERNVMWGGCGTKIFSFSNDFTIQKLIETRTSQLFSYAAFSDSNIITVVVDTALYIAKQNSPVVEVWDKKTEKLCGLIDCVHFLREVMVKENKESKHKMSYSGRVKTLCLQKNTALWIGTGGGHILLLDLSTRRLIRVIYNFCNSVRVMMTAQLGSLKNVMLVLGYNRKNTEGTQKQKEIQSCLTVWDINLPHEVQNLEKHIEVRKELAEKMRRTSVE
Sequence of ERK2 (P28482 whole entry, species assumed): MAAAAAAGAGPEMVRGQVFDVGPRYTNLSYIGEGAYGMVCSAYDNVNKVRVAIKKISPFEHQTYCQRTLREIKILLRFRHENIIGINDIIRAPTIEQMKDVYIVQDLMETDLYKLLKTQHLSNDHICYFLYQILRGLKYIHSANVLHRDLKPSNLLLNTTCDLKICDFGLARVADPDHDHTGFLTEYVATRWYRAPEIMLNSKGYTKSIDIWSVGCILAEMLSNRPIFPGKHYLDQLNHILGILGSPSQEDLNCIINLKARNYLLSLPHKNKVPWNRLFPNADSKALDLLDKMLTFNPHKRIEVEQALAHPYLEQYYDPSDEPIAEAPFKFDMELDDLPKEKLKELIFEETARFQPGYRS
Sequence of Cdk1 (P06493 whole entry, species assumed): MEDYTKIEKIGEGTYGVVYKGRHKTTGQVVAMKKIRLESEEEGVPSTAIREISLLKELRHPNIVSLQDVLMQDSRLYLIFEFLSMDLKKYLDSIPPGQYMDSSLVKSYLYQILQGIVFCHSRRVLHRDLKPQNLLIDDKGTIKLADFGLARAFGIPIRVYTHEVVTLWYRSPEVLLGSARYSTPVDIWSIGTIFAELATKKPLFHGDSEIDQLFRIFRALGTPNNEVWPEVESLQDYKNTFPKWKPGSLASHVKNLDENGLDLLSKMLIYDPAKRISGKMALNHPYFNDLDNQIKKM
Sequence of Cdk1 (P14635 whole entry partner, species assumed): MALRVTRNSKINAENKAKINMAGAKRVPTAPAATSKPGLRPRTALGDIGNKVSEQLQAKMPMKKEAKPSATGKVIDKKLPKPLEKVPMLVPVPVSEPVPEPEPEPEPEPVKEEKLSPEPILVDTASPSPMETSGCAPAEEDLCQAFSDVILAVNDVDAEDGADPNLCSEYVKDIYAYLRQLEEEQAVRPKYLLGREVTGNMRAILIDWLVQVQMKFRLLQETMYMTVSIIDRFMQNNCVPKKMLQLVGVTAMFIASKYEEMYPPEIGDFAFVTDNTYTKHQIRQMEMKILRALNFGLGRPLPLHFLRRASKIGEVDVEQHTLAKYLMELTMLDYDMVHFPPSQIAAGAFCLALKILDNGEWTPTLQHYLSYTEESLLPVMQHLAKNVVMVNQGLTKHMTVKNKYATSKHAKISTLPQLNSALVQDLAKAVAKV

Turning to `COC(=O)[C@@]1(N)CC2OC1(C)n1c3ccccc3c3c4c(c5c6ccccc6n2c5c31)C(=O)NC4` (stereo partly drawn) [Compound 5], the IC50 on Cdk1 is 260 nM; against ERK2, 350 nM; on wildtype human LRRK2 (100 μM ATP, read-out: LRRK2) it was 1 nM; on wildtype human LRRK2 (100 microM ATP, read-out: LRRK2 inhibitory potency (essentially receptor-limited)) it was not above 1 nM.

In the case of `CNC(=O)C1(N)CC2OC1(C)n1c3ccc(Br)cc3c3c4c(c5c6cc(Br)ccc6n2c5c31)C(=O)NC4` (stereo not drawn) [Compound 15], on wildtype human LRRK2 (100 μM ATP, read-out: LRRK2), the IC50 came out at 1.5 nM.

Consider `CC12OC(C[C@]1(N)CO)n1c3ccccc3c3c4c(c5c6ccccc6n2c5c31)CNC4=O` (stereo partly drawn) [Compound 13], for which the IC50 at wildtype human LRRK2 (100 μM ATP, read-out: LRRK2) is 1 nM.

For `COC(=O)[C@@]1(O)C[C@H]2O[C@]1(C)n1c3ccccc3c3c4c(c5c6ccccc6n2c5c31)C(=O)NC4` [Compound K252a, K252a, reference compound], the IC50 on Cdk1 was 310 nM; at ERK2, 120 nM; against PKC it was 5000 nM; against wildtype human LRRK2 it was 220 nM; on GSK3, more than 10000 nM; on PKA it was 3400 nM. The “Potency for LRRK2 inhibition lower than that of compound 5” value on wildtype human LRRK2 (direct comparison) is on record as “more than 2 orders of magnitude”. The “Activity as inhibitor of LRRK2” value on LRRK2 is “active as inhibitors of LRRK2”.

As for `Cl.NCCc1ccc(O)c(O)c1` [dopamine hydrochloride, reference compound], the “Loss of the food-sensing response in impaired LRRK2 worms” value in series [1] is “partially rescued”.

Consider `CNC(=O)[C@@]1(N)CC2OC1(C)n1c3ccccc3c3c4c(c5c6cc(Br)ccc6n2c5c31)C(=O)NC4` (stereo partly drawn) [Compound 14], for which, at wildtype human LRRK2 (100 μM ATP, read-out: LRRK2), the IC50 is 1.2 nM.

In the case of `CN[C@@H]1C[C@H]2O[C@@](C)([C@@H]1OC)n1c3ccccc3c3c4c(c5c6ccccc6n2c5c31)C(=O)NC4` [staurosporine], the LC50 in series [2] fell in the range of 200 to 300 nM. Further, the “Activity as inhibitor of LRRK2” value at LRRK2 is on record as “active as inhibitors of LRRK2”.
